Here are results for 19 molecules from patent publication US20040034019A1, “Piperazine and piperidine derivatives” (priority 2002, published 2004).

SMILES strings stand for the structures. pEC50: −log10 of the molar value. Where a name gives a salt, the structure may show the parent alone.

The assay relates to rat embryo ventral mesencephalic cells. The assay can be described thus: Neuroprotection assay (NMDA neuroexcitotoxic injury, high affinity 3H-dopamine uptake). It is filed as cell-based, Sprague-Dawley rat. As to conditions: embryonic day 15 rat VM cell culture, NMDA (100-400 μM) for 20 hours. The text has this: The neuroprotective activity of the compounds of this invention may be assayed using rat embryo ventral mesencephalic cells in culture which are subsequently exposed to the glutamate receptor agonist NMDA. This assay is described in detail in the example section.
The ventral mesencephalic region was dissected out of embryonic day 15 Sprague-Dawley rat embryos (Harlan), dissociated into single cell suspension by a combination of trypsinization and trituration (Costantini et al., Neurobiol Dis., pp. 97-106 (1998). Dissociated VM cells were plated into poly-L-ornithine-coated 96-well plates at a density of 85,000 cells/well in 100 uL of DMEM supplemented with 18% heat-inactivated horse serum, 0.24% glucose, 2 mM glutamine and 50 u/ml penicillin/streptomycin and incubated in a 5% CO2 incubator. After one day in culture (DIV1), the medium was replaced with 100 μL of a defined medium (DMEM supplemented with 1× N2 cocktail (Gibco-BRL), 0.12% glucose, 2 mM glutamine, and 50 units/ml penicillin/streptomycin) containing DMSO or various concentrations of the compounds of this invention. On DIV5, neuroexcitotoxic injury was induced by the addition of various concentrations of the glutamate receptor agonist NMDA (100-400 μM). Cultures were incubated with the neurotoxin for 20 hours and the effects of neurophilin compounds were assessed using high affinity ^3H-dopamine uptake according to a procedure published by Park and Mytilineou [Brain Res., 599, pp. 83-97 (1992)].
As to `Cc1ccc(CN2CCC[C@H]2C(=O)N2CCC(Cc3ccc(F)cc3)CC2)cc1` [Compound 275], the pEC50 was greater than 7.00.
The same measure for `O=C([C@@H]1CCCN1C/C=C/c1ccccc1)N1CCC(Cc2ccc(F)cc2)CC1` [Compound 269]: 6.30 to 7.00.
The value for `CCN1CC[C@@H](c2ccccc2)[C@H]1C(=O)N1CCC(Cc2ccccc2)CC1` [Compound 252] was less than 6.30; that for `CN1CSC(C)(C)[C@H]1C(=O)N1CCC(Cc2ccccc2)CC1` [Compound 200] was 6.30 to 7.00.
Consider `O=C([C@@H]1CC[C@H](c2ccccc2)N1Cc1ccccc1)N1CCC(Cc2ccccc2)CC1` [Compound 233], for which the pEC50 is 6.30 to 7.00.
The same measure for `O=C([C@@H]1CCCN1Cc1ccc(F)c(F)c1)N1CCC(Cc2ccc(F)cc2)CC1` [Compound 277]: greater than 7.00.
As to `CCN1CCCC[C@H]1C(=O)N1CCN(c2ccccn2)CC1` [Compound 2], the pEC50 is less than 6.30.
On to `CCN1CC(c2ccccc2)C[C@H]1C(=O)N1CCC(Cc2ccccc2)CC1` (stereo partly shown) [Compound 250], for which the pEC50 was less than 6.30.
The value for `CN1[C@@H](C(=O)N2CCC(Cc3ccccc3)CC2)CC[C@H]1c1ccccc1` [Compound 206] was greater than 7.00; that for `CN1CCC(C(=O)N2CCN(C(c3ccccc3)c3ccccc3)CC2)CC1` [Compound 11] was less than 6.30.
On to `CCN1CCCC[C@H]1C(=O)N1CCN(Cc2ccc(Cl)cc2)CC1` [Compound 72, [4-(4-Chlorobenzyl)-piperazin-1-yl]-((2S)-1-ethylpiperidin-2-yl)-methanone dihydrochloride], for which the pEC50 is less than 6.30.
Regarding `O=C1C[C@@H](C(=O)N2CCC(Cc3ccccc3)CC2)N(Cc2ccccc2)C1` [Compound 29, (2S)-1-Benzyl-5-(4-benzylpiperidine-1-carbonyl)-pyrrolidin-3-one], the pEC50 is 6.30 to 7.00.
As to `C[C@@]1(C(=O)N2CCN(C(c3ccc(F)cc3)c3ccc(F)cc3)CC2)CCCN1Cc1ccccc1` [Compound 245], the pEC50 was 6.30 to 7.00.
Regarding `O=C([C@@H]1[C@H](c2ccccc2)CCN1Cc1ccccc1)N1CCC(Cc2ccccc2)CC1` [Compound 235], the pEC50 was less than 6.30.
The same measure for `CC1CC[C@@H](C(=O)N2CCN(C(c3ccc(F)cc3)c3ccc(F)cc3)CC2)N1Cc1ccccc1` (stereo partly shown) [Compound 243]: less than 6.30; for `O=C(C1[C@H]2C[C@@H]2CN1Cc1ccccc1)N1CCN(C(c2ccc(F)cc2)c2ccc(F)cc2)CC1` (stereo partly shown) [Compound 239]: less than 6.30; for `CCN1CC[C@H]1C(=O)N1CCC(Cc2ccccc2)CC1` [Compound 232]: 6.30 to 7.00.
As for `CN1CCC=C(C(=O)N2CCN(C(c3ccccc3)c3ccccc3)CC2)C1` [Compound 4], the pEC50 was less than 6.30.
For `CCN1CCCC[C@H]1C(=O)N1CCN(CCCc2ccccc2)CC1` [Compound 70, ((2S)-1-Ethylpiperidin-2-yl)-[4-(3-phenylpropyl)-piperazin-1-yl]-methanone dihydrochloride], the pEC50 was 6.30 to 7.00.
